pIC50: −log10 of the molar value.
Legend:
[1] = test system: VU93
[2] = test system: SSC90; settings: human
[3] = test system: proteasome (4UbFL reporter); assay: 4UbFL proteasome reporter, transfected 293T cells; assay type: cell-based; settings: 4 hours
Description: FIG. 9A illustrates 293T cells in 96 well plates transiently transected with the 4UbFL plasmid and 48 hr later treated with the indicated doses of each compound for 4 hr. Cells were lysed and luciferase activity assessed using a luminometer.
To monitor proteasome activity in living cells, a construct was used expressing a fusion protein comprising four tandem repeats of ubiquitin fused in frame with firefly luciferase (4UbFL) (41) to cause this otherwise stable reporter protein to undergo rapid proteolytic degradation via the proteasome. To assess their capacity to inhibit cellular proteasome function, 293T cells were transiently transfected with the 4UbFL construct and then […] treated with compounds for 4 hours prior to assay of luciferase activity. Like bortezomib, RA375 induced a dramatic increase in bioluminescence, consistent with stabilization of 4UbFL, in a dose dependent manner. At very high concentrations the luciferase activity dropped because of cellular toxicity.
Reporter assays: Sub-confluent cultures of cells were transfected with 4Ub-FL or FL plasmid using TransIT 2020 reagent (Minis Bio). […] Luciferase activity in cell lysate was determined with a luciferase assay kit (Promega) according to the manufacturer's instructions. Bioluminescence was measured by using a Glomax Multidetection system (Promega).

[4] = test system: C33A; assay: MTT cytotoxicity assay, C33A; assay type: cell-based; settings: Homo sapiens, C-33-A, Table 3, 48 hr, Cervical (HPV −ve)
Description: The cytotoxic efficacy of selected compounds was assessed against multiple myeloma (MM) cell lines, as this is a validated clinical target for the licensed proteasome inhibitors.
Cell lines and cytotoxicity assays: All cell lines were obtained from the American Type Culture Collection (ATCC) and cultured in the specified medium supplemented with 10% fetal bovine serum, 100 IU/mL penicillin, and 100 μg/mL streptomycin at 37° C. in a humidified 5% CO2/95% air incubator. […] To assess drug cytotoxicity, cells were seeded at 2,500 cells/well (10,000 cells/well for MM lines) in 100 μL medium in 96-well plate and after 24 treated with compounds for 72 h, incubated according to the manufacturer's protocol with the Thiazolyl Blue Tetrazolium Bromide (Sigma, M2128) and A570 measured using a Benchmark Plus microplate spectrophotometer (BIO-RAD). IC50 data was analyzed by Graphpad Prism software. In the chirality studies the cells were treated with compounds for 48 h, and the cells were incubated and measured via the preceeding protocols.

| SMILES | pIC50 [1] | pIC50 [2] | fold more potent than RA190 (4UbFL stabilization) [3] | fold more potent than bortezomib (4UbFL stabilization) [3] | pIC50 [4] |
| --- | --- | --- | --- | --- | --- |
| C[C@H]1/C(=C\c2ccc([N+](=O)[O-])cc2)C(=O)/C(=C/c2ccc([N+](=O)[O-])cc2)CN1C(=O)[C@@H](N)Cc1ccccc1 | 7.00 | 6.90 |  |  |  |
| O=C(CCl)N[C@@H](Cc1ccccc1)C(=O)N1C/C(=C\c2ccc([N+](=O)[O-])cc2)C(=O)/C(=C/c2ccc([N+](=O)[O-])cc2)C1 [RA375] |  |  | 4 fold | 2 fold | 6.78 |

— patent US12673918B2, “Small molecule RPN13 inhibitors with antitumor properties” (The Johns Hopkins University, priority 2019, dated 2026)
